Laboratory results published in patent publication US6355799B1, “Substituted benzene compounds, process for their preparation, and herbicidal and defoliant compositions containing them” (ISK Americas Incorporated, priority 1997, dated 2002).

What was measured:
Type in all cases: in vivo
[1] = system: field corn (Zea mays L., var. Dekalb 535, CORN); assay: Pre-emerge test, crop safety; details: crop damage rating 0-100, 14 days after application
In short: (§1)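 Fourteen days after spraying, crop and weed injury was graded visually from 0, no effect, to 100, every plant dead. Test substances were dissolved in acetone and applied at 15–1000 g ai/ha with a flat-fan nozzle. Application was either pre-emergence, one day after sowing, or post-emergence at the 2–3 leaf stage.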

[2] = system: upland rice (Oryza sp., var. Tebonnet, RICE); assay: Pre-emerge test, crop safety; details: crop damage rating 0-100, 14 days after application
In short: as §1

[3] = system: large crabgrass (Digitaria sanguinalis, DIGSA); assay: Post-emerge test, greenhouse herbicide activity screening; details: post-emerge, 14 days after application, rating scale 0-100
In short: (§2)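 Visual ratings on a 0-100 scale (0 no damage, 100 all plants dead) were taken at 14 days after treatment. Rates of 15-1000 g ai/ha in acetone, 187 l/ha, were sprayed onto soil one day after planting (pre-emerge) or onto 2-3 leaf plants with 0.25% v/v surfactant (post-emerge).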

[4] = system: redroot pigweed (Amaranthus retroflexus, AMARE); assay: as above; details: post-emerge, 14 days after application
In short: as §2

[5] = system: sicklepod (Cassia obtusifolia, CASOB); assay: as above; details: post-emerge, 14 days after application, rating scale 0-100
In short: as §2

[6] = system: barnyardgrass (Echinochloa crus-galli, ECHCG); assay: as above; details: post-emerge, 14 days after application, rating scale 0-100
In short: as §2

[7] = system: green foxtail (Setaria viridis, SETVI); assay: as above; details: post-emerge, 14 days after application, rating scale 0-100
In short: as §2

[8] = system: ivyleaf morningglory (Ipomoea hederacea, IPOHE); assay: as above; details: post-emerge, 14 days after application, rating scale 0-100
In short: as §2

[9] = system: johnsongrass (Sorghum halepense, SORHA); assay: as above; details: post-emerge, 14 days after application, rating scale 0-100
In short: as §2

[10] = system: lambsquarters (Chenopodium album, CHEAL); assay: as above; details: post-emerge, 14 days after application, rating scale 0-100
In short: as §2

[11] = system: velvetleaf (Abutilon theophrasti, ABUTH); assay: as above; details: post-emerge, 14 days after application, rating scale 0-100
In short: as §2

[12] = system: large crabgrass (Digitaria sanguinalis, DIGSA); assay: Pre-emerge test, greenhouse herbicide activity screening; details: phytotoxicity rating 0-100, 14 days after application
In short: as §2

[13] = system: sicklepod (Cassia obtusifolia, CASOB); assay: as above; details: phytotoxicity rating 0-100, 14 days after application
In short: as §2

[14] = system: barnyardgrass (Echinochloa crus-galli, ECHCG); assay: as above; details: phytotoxicity rating 0-100, 14 days after application
In short: as §2

[15] = system: green foxtail (Setaria viridis, SETVI); assay: as above; details: phytotoxicity rating 0-100, 14 days after application
In short: as §2

[16] = system: ivyleaf morningglory (Ipomoea hederacea, IPOHE); assay: as above; details: phytotoxicity rating 0-100, 14 days after application
In short: as §2

[17] = system: johnsongrass (Sorghum halepense, SORHA); assay: as above; details: phytotoxicity rating 0-100, 14 days after application
In short: as §2

[18] = system: lambsquarters (Chenopodium album, CHEAL); assay: as above; details: phytotoxicity rating 0-100, 14 days after application
In short: as §2

[19] = system: velvetleaf (Abutilon theophrasti, ABUTH); assay: as above; details: phytotoxicity rating 0-100, 14 days after application
In short: as §2

[20] = system: field corn (Zea mays L., var. Dekalb 535, CORN); assay: Post-emerge test, crop safety; details: post-emerge, 14 days after application, rating scale 0-100
In short: as §2

[21] = system: upland rice (Oryza sp., var. Tebonnet, RICE); assay: Post-emerge test, crop safety; details: post-emerge, 14 days after application, rating scale 0-100
In short: as §2

[22] = system: redroot pigweed (Amaranthus retroflexus, AMARE); assay: Pre-emerge test, greenhouse herbicide activity screening; details: phytotoxicity rating 0-100, 14 days after application
In short: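 Compounds in acetone were track-sprayed at 15-1000 g ai/ha (187 l/ha) on sandy loam pots: pre-emerge one day after seeding, post-emerge at 2-3 leaf stage with 0.25% v/v non-ionic surfactant. Phytotoxicity was rated 14 days later on a 0 (no damage) to 100 (complete death) scale.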

[23] = 63 g ai/ha, rating scale 0-100 (0 no damage, 100 complete death)
[24] = 250 g ai/ha, rating scale 0-100

COc1c(Cl)cc(F)c(-n2c(=O)cc(C(F)(F)F)n(C)c2=O)c1NC(=O)OCc1ccc2ccccc2c1 [4-28]
0: Pre-emerge Herbicidal Activity CORN ([1]; 63 g ai/ha) | Pre-emerge Herbicidal Activity CORN ([1]; 250 g ai/ha) | Pre-emerge Herbicidal Activity RICE ([2]; 63 g ai/ha) | phytotoxicity rating DIGSA ([3]; 63 g ai/ha) | phytotoxicity rating ECHCG ([6]; 63 g ai/ha) | phytotoxicity rating SORHA ([9]; 63 g ai/ha) | Pre-emerge Herbicidal Activity DIGSA ([12]; 63 g ai/ha) | Pre-emerge Herbicidal Activity DIGSA ([12]; 250 g ai/ha) | Pre-emerge Herbicidal Activity CASOB ([13]; 63 g ai/ha) | Pre-emerge Herbicidal Activity CASOB ([13]; 250 g ai/ha) | Pre-emerge Herbicidal Activity ECHCG ([14]; 63 g ai/ha) | Pre-emerge Herbicidal Activity ECHCG ([14]; 250 g ai/ha) | Pre-emerge Herbicidal Activity IPOHE ([16]; 63 g ai/ha) | Pre-emerge Herbicidal Activity IPOHE ([16]; 250 g ai/ha) | Pre-emerge Herbicidal Activity SORHA ([17]; 63 g ai/ha) | Pre-emerge Herbicidal Activity SORHA ([17]; 250 g ai/ha) | phytotoxicity rating CORN (crop damage) ([20]; 63 g ai/ha)
20: phytotoxicity rating DIGSA ([3]; 250 g ai/ha) | phytotoxicity rating ECHCG ([6]; 250 g ai/ha) | Pre-emerge Herbicidal Activity SETVI ([15]; 63 g ai/ha) | Pre-emerge Herbicidal Activity ABUTH ([19]; 63 g ai/ha)
15: Pre-emerge Herbicidal Activity RICE ([2]; 250 g ai/ha) | phytotoxicity rating RICE (crop damage) ([21]; 250 g ai/ha)
70: phytotoxicity rating CHEAL ([10]; 63 g ai/ha) | Pre-emerge Herbicidal Activity CHEAL ([18]; 63 g ai/ha) | Pre-emerge Herbicidal Activity AMARE ([22]; 250 g ai/ha)
50: phytotoxicity rating CASOB ([5]; 63 g ai/ha) | phytotoxicity rating CASOB ([5]; 250 g ai/ha)
100: phytotoxicity rating AMARE [4, 24] | phytotoxicity rating ABUTH ([11]; 63 g ai/ha) | phytotoxicity rating ABUTH ([11]; 250 g ai/ha) | Pre-emerge Herbicidal Activity CHEAL ([18]; 250 g ai/ha)
10: phytotoxicity rating SETVI ([7]; 63 g ai/ha) | phytotoxicity rating SORHA ([9]; 250 g ai/ha) | phytotoxicity rating RICE (crop damage) ([21]; 63 g ai/ha)
30: phytotoxicity rating SETVI ([7]; 250 g ai/ha)
90: phytotoxicity rating CHEAL ([10]; 250 g ai/ha)
40: Pre-emerge Herbicidal Activity AMARE ([22]; 63 g ai/ha)
5: phytotoxicity rating CORN (crop damage) ([20]; 250 g ai/ha)
80: phytotoxicity rating AMARE [4, 23] | phytotoxicity rating IPOHE ([8]; 250 g ai/ha)
60: phytotoxicity rating IPOHE ([8]; 63 g ai/ha) | Pre-emerge Herbicidal Activity SETVI ([15]; 250 g ai/ha) | Pre-emerge Herbicidal Activity ABUTH ([19]; 250 g ai/ha)

COc1c(Cl)cc(F)c(-n2c(=O)cc(C(F)(F)F)n(C)c2=O)c1NC(=O)OCc1c(F)cccc1F [4-29]
70: phytotoxicity rating ECHCG ([6]; 63 g ai/ha) | Pre-emerge Herbicidal Activity ECHCG ([14]; 63 g ai/ha) | Pre-emerge Herbicidal Activity IPOHE ([16]; 63 g ai/ha) | Pre-emerge Herbicidal Activity SORHA ([17]; 63 g ai/ha)
90: phytotoxicity rating DIGSA ([3]; 250 g ai/ha) | phytotoxicity rating CASOB ([5]; 63 g ai/ha) | phytotoxicity rating ECHCG ([6]; 250 g ai/ha) | phytotoxicity rating CHEAL ([10]; 63 g ai/ha) | Pre-emerge Herbicidal Activity ECHCG ([14]; 250 g ai/ha) | Pre-emerge Herbicidal Activity IPOHE ([16]; 250 g ai/ha) | Pre-emerge Herbicidal Activity SORHA ([17]; 250 g ai/ha)
40: Pre-emerge Herbicidal Activity CASOB ([13]; 63 g ai/ha)
80: Pre-emerge Herbicidal Activity CORN ([1]; 63 g ai/ha) | phytotoxicity rating SETVI ([7]; 63 g ai/ha) | Pre-emerge Herbicidal Activity CASOB ([13]; 250 g ai/ha) | phytotoxicity rating CORN (crop damage) ([20]; 63 g ai/ha)
99: phytotoxicity rating SETVI ([7]; 250 g ai/ha)
50: Pre-emerge Herbicidal Activity RICE ([2]; 63 g ai/ha) | phytotoxicity rating DIGSA ([3]; 63 g ai/ha)
85: Pre-emerge Herbicidal Activity RICE ([2]; 250 g ai/ha) | phytotoxicity rating RICE (crop damage) ([21]; 250 g ai/ha)
95: Pre-emerge Herbicidal Activity CORN ([1]; 250 g ai/ha)
60: phytotoxicity rating SORHA ([9]; 63 g ai/ha) | phytotoxicity rating RICE (crop damage) ([21]; 63 g ai/ha)
100: phytotoxicity rating AMARE [4, 23] | phytotoxicity rating AMARE [4, 24] | phytotoxicity rating CASOB ([5]; 250 g ai/ha) | phytotoxicity rating IPOHE ([8]; 63 g ai/ha) | phytotoxicity rating IPOHE ([8]; 250 g ai/ha) | phytotoxicity rating SORHA ([9]; 250 g ai/ha) | phytotoxicity rating CHEAL ([10]; 250 g ai/ha) | phytotoxicity rating ABUTH ([11]; 63 g ai/ha) | phytotoxicity rating ABUTH ([11]; 250 g ai/ha) | Pre-emerge Herbicidal Activity DIGSA ([12]; 63 g ai/ha) | Pre-emerge Herbicidal Activity DIGSA ([12]; 250 g ai/ha) | Pre-emerge Herbicidal Activity SETVI ([15]; 63 g ai/ha) | Pre-emerge Herbicidal Activity SETVI ([15]; 250 g ai/ha) | Pre-emerge Herbicidal Activity CHEAL ([18]; 63 g ai/ha) | Pre-emerge Herbicidal Activity CHEAL ([18]; 250 g ai/ha) | Pre-emerge Herbicidal Activity ABUTH ([19]; 63 g ai/ha) | Pre-emerge Herbicidal Activity ABUTH ([19]; 250 g ai/ha) | phytotoxicity rating CORN (crop damage) ([20]; 250 g ai/ha) | Pre-emerge Herbicidal Activity AMARE ([22]; 63 g ai/ha) | Pre-emerge Herbicidal Activity AMARE ([22]; 250 g ai/ha)
